Measured values as given in the NIST ThermoML archive (doi:10.1016/j.jct.2005.03.016).

Experiment: xn = mol fraction of the nth substance listed
Conditions: Liquid, Vibrating tube method

CC1CCCCC1 [methylcyclohexane] + CCO
mass density [kg/m3]
Conditions	100 kPa	5000 kPa	10000 kPa	15000 kPa	20000 kPa	25000 kPa	30000 kPa	35000 kPa	40000 kPa	45000 kPa
313.15 K, x2 = 0.5	–	–	–	–	–	–	–	–	–	790.2
313.15 K, x2 = 0.625	–	–	–	–	–	–	–	–	–	792.6
313.15 K, x2 = 0.75	–	–	–	–	–	–	–	–	–	795.8
313.15 K, x2 = 0.875	–	–	–	–	–	–	–	–	–	800.4
323.15 K, x2 = 0	742.9	747.7	752.5	756.9	761.1	765.1	769	772.6	776.1	779.5
323.15 K, x2 = 0.052	742	746.9	751.7	756.3	760.5	764.5	768.4	772.1	775.6	779.1
323.15 K, x2 = 0.125	741.9	746.8	751.7	756.2	760.5	764.6	768.5	772.2	775.7	779.2
323.15 K, x2 = 0.25	742.4	747.4	752.3	756.8	761.2	765.3	769.2	772.9	776.5	780
323.15 K, x2 = 0.375	743.4	748.5	753.4	758	762.4	766.5	770.4	774.2	777.8	781.2
323.15 K, x2 = 0.5	745	750.1	755	759.6	764	768.2	772.1	775.9	779.5	783
323.15 K, x2 = 0.625	747.4	752.4	757.4	762	766.4	770.5	774.5	778.2	781.9	785.3
323.15 K, x2 = 0.75	750.7	755.7	760.6	765.2	769.6	773.7	777.7	781.5	785.1	788.6
323.15 K, x2 = 0.875	755.6	760.6	765.5	770.1	774.4	778.5	782.4	786.2	789.8	793.3
333.15 K, x2 = 0	733.9	739	744.1	748.8	753.3	757.5	761.5	765.4	769	772.5
333.15 K, x2 = 0.052	732.8	738.1	743.2	748	752.5	756.8	760.9	764.7	768.5	772
333.15 K, x2 = 0.125	732.4	737.8	742.9	747.8	752.3	756.6	760.7	764.6	768.4	771.9
333.15 K, x2 = 0.25	732.7	738.1	743.3	748.2	752.8	757.1	761.3	765.2	769	772.6
333.15 K, x2 = 0.375	733.7	739.1	744.4	749.3	753.9	758.3	762.4	766.4	770.2	773.8
333.15 K, x2 = 0.5	735.3	740.7	746	750.9	755.6	759.9	764.1	768.1	771.9	775.5
333.15 K, x2 = 0.625	737.6	743	748.3	753.3	757.9	762.3	766.4	770.4	774.2	777.9
333.15 K, x2 = 0.75	741	746.4	751.6	756.6	761.2	765.5	769.7	773.7	777.5	781.1
333.15 K, x2 = 0.875	746	751.4	756.6	761.5	766	770.4	774.5	778.4	782.2	785.9
343.15 K, x2 = 0	724.8	730.4	735.8	740.8	745.6	750	754.2	758.2	762.1	765.7
343.15 K, x2 = 0.052	723.4	729.1	734.6	739.7	744.5	749	753.3	757.4	761.3	765
343.15 K, x2 = 0.125	722.8	728.6	734.1	739.3	744.2	748.7	753	757.1	761	764.8
343.15 K, x2 = 0.25	722.9	728.7	734.3	739.6	744.5	749.1	753.5	757.6	761.5	765.3
343.15 K, x2 = 0.375	723.8	729.6	735.3	740.5	745.5	750.1	754.5	758.6	762.6	766.4
343.15 K, x2 = 0.5	725.3	731.2	736.9	742.1	747.1	751.7	756.1	760.3	764.3	768.1
343.15 K, x2 = 0.625	727.6	733.5	739.2	744.4	749.4	754	758.4	762.6	766.6	770.4
343.15 K, x2 = 0.75	731.1	736.9	742.5	747.8	752.7	757.3	761.7	765.9	769.8	773.6
343.15 K, x2 = 0.875	736.3	742.1	747.6	752.8	757.7	762.3	766.6	770.8	774.7	778.4
353.15 K, x2 = 0	715.7	721.7	727.4	732.8	737.8	742.5	747	751.2	755.2	759
353.15 K, x2 = 0.052	–	720.2	726	731.5	736.6	741.3	745.8	750.1	754.2	758
353.15 K, x2 = 0.125	–	719.3	725.3	730.8	736	740.8	745.3	749.6	753.7	757.7
353.15 K, x2 = 0.25	–	719.2	725.2	730.8	736	740.9	745.5	749.9	754	758
353.15 K, x2 = 0.375	–	719.9	726	731.7	736.9	741.8	746.4	750.8	755	759
353.15 K, x2 = 0.5	–	721.4	727.5	733.1	738.4	743.4	748	752.4	756.6	760.6
353.15 K, x2 = 0.625	–	723.7	729.8	735.4	740.7	745.6	750.3	754.6	758.8	762.8
353.15 K, x2 = 0.75	–	727.1	733.2	738.8	744	748.9	753.6	757.9	762.1	766.1
353.15 K, x2 = 0.875	–	732.5	738.4	743.9	749.1	753.9	758.5	762.9	767	771
